Assay results reported in patent publication EP1069898B1, “TOPICAL ANTISEPTIC COMPOSITIONS AND METHODS” (MARGOLIN, Solomon B., priority 1998, dated 1999).

How the values were obtained:
Bacillus subtilis = assay: Preliminary antimicrobial test, plate growth score; assay type: cell-based
Escherichia coli = assay: Preliminary antimicrobial test, plate growth score; assay type: cell-based
Staphylococcus aureus = assay: Preliminary antimicrobial test, plate growth score; assay type: cell-based
[1] = tested on: Trychophton mentagrophytes; assay: Preliminary antimicrobial test, plate growth score; assay type: cell-based; design: key: 1=very slight; 2=slight; 3=slight to moderate; 4=moderate; 10=total plate growth (maximal growth)
Candida albicans = assay: Preliminary antimicrobial test, plate growth score; assay type: cell-based; design: key: 1=very slight; 2=slight; 3=slight to moderate; 4=moderate; 10=total plate growth (maximal growth)
Pseudomonas aeruginosa = assay: Preliminary antimicrobial test, plate growth score; assay type: cell-based; design: key: 1=very slight; 2=slight; 3=slight to moderate; 4=moderate; 10=total plate growth (maximal growth)
[2] = Primary rabbit acute eye irritation test (Draize method); assay type: in vivo; conditions: 2.0% sterile aqueous solution, 0.1 ml. per eye; six albino rabbits; examined up to 10 days
Experimental: The eyes were carefully examined at 1.0 minutes, 30 minutes, and 3 hours after applying the solution, and then repeatedly examined for 10 days after the application of the pirfenidone solution (0.1 ml. per eye).
The eyes were carefully examined at 1, 3, 8, 24, and 48 hours and carefully re-examined daily for 10 days after the application of the ointment (100 milligrams per eye).

Proteus vulgaris = assay: Preliminary antimicrobial test, plate growth score; assay type: cell-based
[3] = Storage stability (chemical assays and physical characteristics); assay type: physicochemical; conditions: crystalline; 25 degrees Centigrade
Source text: A critical feature of the compositions of this invention is the chemical stability of the active ingredient(s), pirfenidone and/or related compounds. Crystalline pirfenidone is stable at room temperature (i.e., 25 degrees Centigrade) for more than five years. The formulations described above are stable for two years or longer at 25 degrees Centigrade (room temperature), based upon chemical assays and upon physical characteristics (color, plasticity, active ingredient dispersion and suspension).

Aspergillus niger = assay: Preliminary antimicrobial test, plate growth score; assay type: cell-based
[4] = Pirfenidone concentration 5.0 wt.%
[5] = Pirfenidone concentration 10.0 wt.%

Q: What does the source list for `Cc1ccc(=O)n(-c2ccccc2)c1` [Pirfenidone, 5-methyl-1-phenyl-2-(1H) pyridone]?
A: GROWTH SCORES (0 TO 10) (Bacillus subtilis; [4]): 0; GROWTH SCORES (0 TO 10) (Bacillus subtilis; [5]): 0; GROWTH SCORES (0 TO 10) (Escherichia coli; [4]): 0; GROWTH SCORES (0 TO 10) (Escherichia coli; [5]): 0; GROWTH SCORES (0 TO 10) (Staphylococcus aureus; [4]): 0; GROWTH SCORES (0 TO 10) (Staphylococcus aureus; [5]): 0; GROWTH SCORES (0 TO 10) [1, 4]: 2; GROWTH SCORES (0 TO 10) [1, 5]: 0; GROWTH SCORES (0 TO 10) (Candida albicans; [4]): 2; GROWTH SCORES (0 TO 10) (Candida albicans; [5]): 0; GROWTH SCORES (0 TO 10) (Pseudomonas aeruginosa; Pirfenidone concentration 2.0 wt.%): 1; GROWTH SCORES (0 TO 10) (Pseudomonas aeruginosa; [4]): 0; GROWTH SCORES (0 TO 10) (Pseudomonas aeruginosa; [5]): 0; eye irritation (hyperemia, edema, eye discomfort, chemotaxis) [2]: failed to cause any irritation; GROWTH SCORES (0 TO 10) (Proteus vulgaris; [4]): 0; GROWTH SCORES (0 TO 10) (Proteus vulgaris; [5]): 0; stable at room temperature [3]: more than five; GROWTH SCORES (0 TO 10) (Aspergillus niger; [4]): 0; GROWTH SCORES (0 TO 10) (Aspergillus niger; [5]): 0
